Data published in US6479509B1, “Method of promoting smoking cessation” (priority 2000, dated 2002).
Entries after “also recorded” stand apart in the source; their conditions may differ. Read-outs that look alike come from different tables or passages of the source.

How the values were obtained:
Dopamine transporter = target: T1, Dopamine transporter (Rattus norvegicus, UniProt P23977)
T1 construct: from tissue; host or cells: brain

[1] = test system: nicotine-induced antinociception; experiment: Blockade of nicotine-induced antinociception, tail-flick test; format: in vivo, mice; details: for AD50 Tail-Flick: blocking antinociception of nicotine 2.5 mg/kg, systemic administration
Method: Anitinociception. The tail-flick method of D'Amour and Smith (1941) as modified by Dewey et al. (1970) was used. A control response (2-4 s) was determined for each animal before treatment, and a test latency was determined after drug administration. To minimize tissue damage, a maximum latency of 10 s was imposed. Antinociceptive response was calculated as percent maximum possible effect (% MPE), where % MPE=[((test-control)/(10-control))×100], Groups of 8 to 12 animals were used for each dose and for each treatment. Mice were tested 5 min after nicotine administration for the dose-response evaluation. Antagonism studies were carried out by pretreating the mice s.c. with either saline or various drugs at different times before nicotine. The animals were tested 5 min after administration of nicotine.
(§1) Data were analyzed statistically by an analysis of variance followed by the Fisher's P least-significant difference multiple comparison test. The null hypothesis was rejected at the […].

Serotonin transporter = target: T2, Serotonin transporter (Rattus norvegicus, UniProt P31652)
T2 construct: from tissue; host or cells: brain
T2 sequence (P31652 whole entry): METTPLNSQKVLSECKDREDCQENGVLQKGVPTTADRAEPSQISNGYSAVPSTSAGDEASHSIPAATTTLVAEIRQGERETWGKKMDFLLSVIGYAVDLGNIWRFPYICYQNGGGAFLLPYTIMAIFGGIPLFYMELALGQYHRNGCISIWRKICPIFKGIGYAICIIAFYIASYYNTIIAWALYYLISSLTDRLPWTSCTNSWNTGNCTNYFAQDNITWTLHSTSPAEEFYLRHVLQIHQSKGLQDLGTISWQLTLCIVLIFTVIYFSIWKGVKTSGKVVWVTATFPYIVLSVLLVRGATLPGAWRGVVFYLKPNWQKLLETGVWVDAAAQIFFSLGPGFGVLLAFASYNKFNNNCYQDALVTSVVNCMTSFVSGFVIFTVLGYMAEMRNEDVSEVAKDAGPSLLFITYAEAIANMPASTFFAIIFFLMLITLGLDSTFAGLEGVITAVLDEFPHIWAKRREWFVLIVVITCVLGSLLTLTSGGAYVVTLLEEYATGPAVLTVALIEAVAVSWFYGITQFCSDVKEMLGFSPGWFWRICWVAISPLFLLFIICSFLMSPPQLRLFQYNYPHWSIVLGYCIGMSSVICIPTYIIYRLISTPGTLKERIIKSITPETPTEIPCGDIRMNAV

[2] = target: T3, Norepinephrine transporter (Rattus norvegicus, UniProt Q63380)
T3 construct: from tissue; host or cells: brain
T3 sequence (Q63380 1-617): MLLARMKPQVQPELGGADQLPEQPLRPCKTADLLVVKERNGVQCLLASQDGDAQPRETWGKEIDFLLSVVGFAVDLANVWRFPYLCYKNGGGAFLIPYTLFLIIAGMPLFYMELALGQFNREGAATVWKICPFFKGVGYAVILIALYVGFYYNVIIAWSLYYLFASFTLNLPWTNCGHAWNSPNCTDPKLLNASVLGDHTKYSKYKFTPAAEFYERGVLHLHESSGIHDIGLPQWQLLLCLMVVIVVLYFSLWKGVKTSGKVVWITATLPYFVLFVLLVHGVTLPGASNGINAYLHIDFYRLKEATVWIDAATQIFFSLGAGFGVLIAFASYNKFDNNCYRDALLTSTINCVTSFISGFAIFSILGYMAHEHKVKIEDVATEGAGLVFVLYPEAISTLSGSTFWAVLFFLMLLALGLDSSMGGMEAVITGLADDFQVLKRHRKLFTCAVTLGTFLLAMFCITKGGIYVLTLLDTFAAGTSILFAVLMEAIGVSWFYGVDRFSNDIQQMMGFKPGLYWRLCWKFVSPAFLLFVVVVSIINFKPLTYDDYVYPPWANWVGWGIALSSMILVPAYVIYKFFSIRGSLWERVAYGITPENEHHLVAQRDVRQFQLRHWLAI

[3] = test system: nicotine-induced hypothermia; experiment: Blockade of nicotine-induced hypothermia (body temperature); format: in vivo, mice; details: for AD50 Hypothermia: blocking nicotine-induced hypothermia, systemic administration
Method: Body Temperature. Rectal temperature was measured by a thermistor probe (inserted 24 mm) and digital thermometer (Yellow Springs Instrument Co., Yellow Springs, Ohio). Readings were taken just before and at 30 min after the s.c. injection of nicotine. For antagonism studies, mice were pretreated with either saline or various drugs 10 min before nicotine. The difference in rectal temperature before and after treatment was calculated for each mouse. The ambient temperature of the laboratory varied from 21 to 24° C. from day to day.
as §1

[4] = test system: cocaine-induced hyperactivity; experiment: Locomotor activity, cocaine-induced hyperactivity; format: in vivo, mice; details: doses higher than 1 mg/kg
Method: Locomotor Activity. […] Interruptions of the photocell beams (two banks of eight cells each) were then recorded for the next 30 min. Data were expressed as number of photocell interruptions.

[5] = brain; read-out: Dopamine [3H]WIN 35,428 IC50; cited from earlier work
[6] = brain; read-out: Serotonin [3H]Paroxetine IC50; cited from earlier work
[7] = brain; read-out: Norepinephrine [3H]Nisoxetime IC50; cited from earlier work
[8] = read-out: Dopamine [3H]WIN 35,428 IC50; brain; cited from earlier work
[9] = read-out: Norepinephrine [3H]Nisoxetime IC50; brain; cited from earlier work

T1 sequence (P23977 whole entry): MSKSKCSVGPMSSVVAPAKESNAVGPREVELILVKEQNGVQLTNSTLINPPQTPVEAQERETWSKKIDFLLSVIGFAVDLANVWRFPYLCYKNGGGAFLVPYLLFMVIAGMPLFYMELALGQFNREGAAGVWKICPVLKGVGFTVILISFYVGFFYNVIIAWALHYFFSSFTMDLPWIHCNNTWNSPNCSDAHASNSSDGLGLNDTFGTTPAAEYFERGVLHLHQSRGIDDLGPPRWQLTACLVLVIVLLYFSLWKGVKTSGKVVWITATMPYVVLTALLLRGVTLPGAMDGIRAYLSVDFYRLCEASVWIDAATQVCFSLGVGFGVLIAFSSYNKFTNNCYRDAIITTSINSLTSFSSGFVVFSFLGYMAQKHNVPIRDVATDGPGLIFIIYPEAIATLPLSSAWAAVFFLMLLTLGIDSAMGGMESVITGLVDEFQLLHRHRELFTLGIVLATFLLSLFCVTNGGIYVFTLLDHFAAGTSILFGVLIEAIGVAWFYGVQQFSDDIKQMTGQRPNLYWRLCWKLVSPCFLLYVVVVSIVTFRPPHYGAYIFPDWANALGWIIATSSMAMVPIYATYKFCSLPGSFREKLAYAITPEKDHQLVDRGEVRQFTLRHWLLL

COC(=O)[C@H]1[C@@H](c2ccc(Br)cc2)C[C@H]2CC[C@@H]1N2C [RTI-51]
IC50 (Dopamine transporter; [5]): 1.69 nM
AD50 Tail-Flick ([1]; mice): 1.0 μmol/hg
IC50 (Serotonin transporter; [6]): 10.6 nM

COC(=O)[C@H]1C(c2ccc(I)cc2)C[C@@H]2CC[C@H]1N2C (stereo partly drawn) [RTI-55]
IC50 (Dopamine transporter; [5]): 1.26 nM
AD50 Tail-Flick ([1]; mice): 0.9 μmol/hg
IC50 [2, 7]: 63 nM
AD50 Hypothermia ([3]; mice): 1.2 μmol/hg
Blockade of nicotine-induced hypothermia (in words) ([3]; mice): significantly blocked
IC50 (Serotonin transporter; [6]): 4.2 nM

CN1[C@H]2CC[C@@H]1[C@@H](C(=O)O)[C@@H](c1ccc(Cl)cc1)C2 [RTI-70]
IC50 (Dopamine transporter; [5]): 2070 nM
Tail-flick, % blockade @ dose ([1]; @ 90 μmol/hg): 0% @ 90
Relative potency in blocking nicotine's antinociceptive effect (in words, comparator in the value) ([1]; tail-flick, mice): much less potent than cocaine
IC50 [2, 7]: > 200000 nM
Hypothermia, % blockade @ dose ([3]; @ 90 μmol/hg): 40% @ 90
IC50 (Serotonin transporter; [6]): 59500 nM

COC(=O)[C@H]1[C@@H](c2ccc(Cl)cc2)C[C@@H]2CC[C@H]1N2 [RTI-110]
IC50 (Dopamine transporter; [5]): 0.62 nM
AD50 Tail-Flick ([1]; mice): 1.0 μmol/hg
Fold more potent than cocaine in blocking nicotine's antinociceptive effect ([1]; tail-flick, mice): 3 fold
IC50 [2, 7]: 5.45 nM
IC50 (Serotonin transporter; [6]): 4.1 nM

COC(=O)[C@H]1[C@@H](c2ccc(Cl)c(Cl)c2)C[C@@H]2CC[C@H]1N2C [RTI-111]
IC50 (Dopamine transporter; [5]): 0.79 nM
AD50 Tail-Flick ([1]; mice): 1.3 μmol/hg
Fold more potent than cocaine in blocking nicotine's antinociceptive effect ([1]; tail-flick, mice): ~2.5 fold
IC50 [2, 7]: 17.9 nM
IC50 (Serotonin transporter; [6]): 3.1 nM

COC(=O)[C@H]1[C@@H](c2ccc(Cl)c(C)c2)C[C@@H]2CC[C@H]1N2C [RTI-112]
IC50 (Dopamine transporter; [5]): 0.8 nM
AD50 Tail-Flick ([1]; mice): 3.5 μmol/hg
Relative potency in blocking nicotine's antinociceptive effect (in words, comparator in the value) ([1]; tail-flick, mice): approximately the same activity as cocaine; also recorded: approximately twice as potent as WIN 35,065-2
IC50 [2, 7]: 36.2 nM
AD50 Hypothermia ([3]; mice): 1.5 μmol/hg
Blockade of nicotine-induced hypothermia (in words) ([3]; mice): significantly blocked
IC50 (Serotonin transporter; [6]): 10.5 nM

CN1[C@H]2CC[C@@H]1[C@@H](C(=O)Oc1ccccc1)[C@@H](c1ccc(Cl)cc1)C2 [RTI-113]
IC50 (Dopamine transporter; [5]): 1.98 nM
AD50 Tail-Flick ([1]; mice): 5.6 μmol/hg
IC50 [2, 7]: 2930 nM
IC50 (Serotonin transporter; [6]): 2340 nM

CC(C)OC(=O)[C@@H]1C2CC[C@H](C[C@@H]1c1ccc(Cl)cc1)N2C [RTI-114]
IC50 (Dopamine transporter; [5]): 1.4 nM
AD50 Tail-Flick ([1]; mice): 5.3 μmol/hg
IC50 [2, 7]: 778 nM
AD50 Hypothermia ([3]; mice): 9 μmol/hg
IC50 (Serotonin transporter; [6]): 1400 nM

Cc1ccc([C@H]2C[C@@H]3CC[C@H]([C@H]2C(=O)Oc2ccccc2)N3C)cc1 [RTI-120]
IC50 (Dopamine transporter; [5]): 3.26 nM
AD50 Tail-Flick ([1]; mice): 4.0 μmol/hg
Relative potency in blocking nicotine's antinociceptive effect (in words, comparator in the value) ([1]; tail-flick, mice): only one-half as potent as RTI-32
IC50 [2, 7]: 5830 nM
IC50 (Serotonin transporter; [6]): 24500 nM

CC(C)OC(=O)C1C(c2ccc(I)cc2)CC2CCC1N2C (stereo not drawn) [RTI-121]
IC50 (Dopamine transporter; [8]): 0.4 nM
AD50 Tail-Flick ([1]; mice): 0.3 μmol/hg
Fold more potent than cocaine in blocking nicotine's antinociceptive effect ([1]; tail-flick, mice): 10 fold
IC50 [2, 9]: 285 nM
AD50 Hypothermia ([3]; mice): 49 μmol/hg
Blockade of nicotine-induced hypothermia (in words) ([3]; mice): significantly blocked
Fold less potent in blocking nicotine hypothermia than antinociception ([3]; mice): > 100 fold

CN1C2CCC1C(C(=O)N1CCCC1)C(c1ccc(Cl)cc1)C2 (stereo not drawn) [RTI-147]
IC50 (Dopamine transporter; [8]): 1.38 nM
AD50 Tail-Flick ([1]; mice): 5.7 μmol/hg
Relative potency in blocking nicotine's antinociceptive effect (in words, comparator in the value) ([1]; tail-flick, mice): about one-half as potent as cocaine
IC50 [2, 9]: 3950 nM
IC50 (Serotonin transporter; [6]): 12400 nM

CN1C2CCC1C(C(=O)N1CCCC1)C(c1ccc(I)cc1)C2 (stereo not drawn) [RTI-229]
IC50 (Dopamine transporter; [8]): 0.37 nM
AD50 Tail-Flick ([1]; mice): 3.6 μmol/hg
Relative potency in blocking nicotine's antinociceptive effect (in words, comparator in the value) ([1]; tail-flick, mice): about the same potency as cocaine
IC50 [2, 9]: 990 nM
IC50 (Serotonin transporter; read-out: Serotonin [3H]Paroxetine IC50; brain; cited from earlier work): 1790 nM

COC(=O)[C@H]1[C@@H](c2ccccc2)C[C@@H]2CC[C@H]1N2C [WIN 35,065-2, reference compound]
IC50 (Dopamine transporter; [5]): 23 nM
AD50 Tail-Flick ([1]; mice): 8.0 μmol/hg
Times less potent than cocaine in blocking nicotine's antinociceptive effect ([1]; tail-flick, mice): 2.5 times
IC50 [2, 7]: 920 nM
AD50 Hypothermia ([3]; mice): 6.7 μmol/hg
Blockade of nicotine-induced hypothermia (in words) ([3]; mice): significantly blocked

COC(=O)[C@H]1[C@@H](OC(=O)c2ccccc2)C[C@@H]2CC[C@H]1[N+]2(C)C.[I-] [cocaine methiodide, reference compound]
Blockade of nicotine-induced antinociception (in words) ([1]; tail-flick, mice): failed to significantly block
Blockade of nicotine-induced antinociception (in words) ([1]; tail-flick, mice, listed as cocaine-methiodide): Lack of blockade

CNC1(C)C2CCC(C2)C1(C)C (stereo not drawn) [mecamylamine]
Effect of higher doses on mouse spontaneous activity [4]: significantly decreased mouse spontaneous activity
